From patent US4285953A, “Inhibition of biosynthesis of triglycerides by certain N-β-phenethyl-N-pyridylalkylamines” (Shell Oil Company, priority 1980, dated 1981)

System: enzyme prepared from pig adipose tissue (synthesis of triglycerides)
Assay: Inhibition of triglyceride synthesis by enzyme preparation from pig adipose tissue (14C-glycerol-3-phosphate incorporation)
Format: biochemical
Details: test compound 1000 micrograms per milliliter, 5% DMSO, 8 minutes at 37° C; compared to controls without test compound; average of two animals
Procedure: An enzyme was prepared by homogenizing one gram of slices from pig adipose tissue, each slice being approximately 0.3 mm thick, in onemilliliter portions of a liquid medium (Liquid A). The homogenate then was centrifuged (10.000 g×15 minutes), and the supernatant phase (the enzyme) was poured through cheesecloth to remove fat that had risen to the top of the centrifuge tubes.
Liquid A had the following composition (in water):
0.15 M potassium chloride, 1 mM ethylenediaminetetracetic acid, […] Hepes (N-2-hydroxyethylpiperazine-N'-2-ethanesulfonic acid), 1 mM DTT (dithiothreitol), pH=7.0.
A solution of the test compound (Liquid B) was prepared: 10 milligrams of test compound plus 0.5 milliliter dimethylsulfoxide (DMSO) plus 1.83 milliliters of glass-distilled water.
A premix (Liquid C) was freshly prepared before each test, from the following components: […]
0.25 milliliter of enzyme then was added. […] Ten milliliters of a 2:1 (v/v) mixture of toluene and Triton X-100 containing 0.27% New England Nuclear Omnifluor was added, and the radioactivity was determined in a liquid scintillation counter. […]
The percent inhibition by the test compound compared to the controls (no test compound) was determined.

SMILES	Percent Inhibition
Cc1ccc(CC(C)NCCCC(c2ccccc2)c2ccccn2)cc1.O=C(O)/C=C\C(=O)O (centres unmarked) [Compound 1, N-(1-methyl-2-(4-methylphenyl)ethyl)-delta-phenyl-2-pyridinebutanamine, maleic acid salt]	97
CC(C)(Cc1ccc(Cl)cc1)NCCCC(c1ccccc1)c1ccccn1.O=C(O)/C=C\C(=O)O (centres unmarked) [Compound 2, N-(2-(4-chlorophenyl)-1,1-dimethylethyl)-delta-phenyl-2-pyridinebutanamine, maleic acid salt]	93
